Like-named read-outs stand apart in the source and are kept apart here.
Key:
eosinophils [1] = system: eosinophils
Method: In a 39-week repeat-dose toxicology study, minipigs were dosed at 0, 7.5, 25, and 75 mg/kg dexpramipexole by daily oral gavage through Study Day 45 and at 0, 7.5, 25, and 50 mg/kg dexpramipexole from Study Day 46 to study completion.

[2] = exposures up to 18 months
[3] = system: myeloid and lymphoid cell types, red blood cells, platelets; conditions: 300 mg daily, month 6
Method: Hematological parameters were measured in a Phase 3 study of dexpramipexole in ALS. Because of the high rate of mortality among ALS patients, including subjects in the Phase 3 trial, hematology parameters obtained at the month 6 visit were chosen for analysis to remove the effect of study dropouts in later months.

eosinophils [4] = conditions: for decline in mean serum eosinophils from baseline to week 12: 12 weeks, Part 1; for mean eosinophils at week 16 recovered to % of baseline levels: after one-month washout
Method: The Phase 2 trial was a two-part, double-blind study that evaluated the safety, tolerability, and clinical effects of dexpramipexole in ALS patients.
In Part 1, subjects were randomized to placebo (n=27), 50 mg/day (n=23), 150 mg/day (n=26), or 300 mg/day dexpramipexole (n=26) for 12 weeks.

eosinophils [5] = system: eosinophils; remark: listed apart in the source
Method: (§1) The phase 3 clinical trial was a double-blind study of dexpramipexole in ALS patients randomized 1:1 to placebo or dexpramipexole 300 mg daily treatment. Hematology parameters were collected as part of routine safety monitoring. Eosinophil and basophil counts were retrospectively analyzed by visit.
Eosinophil levels were summarized over available time points and analyzed by ANOVA testing the effect of treatment vs. placebo on mean changes in serum eosinophil counts from baseline. Subjects with baseline eosinophils from 0 to 0.02×10^9/L (constituting less than 2% of all subjects analyzed) were censored from the primary analysis because of the inherent limitation to observe a decline from baseline.
Statistical analysis of the change from baseline was performed at month 6 to remove the effect of study dropouts in later months.

bone marrow cells = conditions: 30 mg/kg or 100 mg/kg daily gavage, 70 days, vs vehicle control
Method: The study consisted of 3 groups of BALB/cByJ mice (10 mice per group). Mice received daily gavage treatments of either 30 mg/kg, 100 mg/kg of dexpramipexole or vehicle control for 70 days. Bone marrow was processed into single cell suspensions and cells were stained with fluorescent conjugate antibodies to analyze the developmental stages of cells by flow cytometry. […] The columns depict the mean for each group and the error bar indicates the standard error of the mean.

basophils = conditions: 300 mg daily
Method: as §1
Changes in basophil counts were also analyzed in the Phase 3 trial.

CCCN[C@@H]1CCc2nc(N)sc2C1 [dexpramipexole, (6R)-2-amino-4,5,6,7-tetrahydro-6-(propylamino) benzothiazole]
safety assessment of eosinophil differences (eosinophils [1]; minipig, in vivo): not considered adverse | reduction in eosinophils (eosinophils [1]; minipigs, 7.5, 25 and 75/50 mg/kg daily oral gavage, 39 weeks): dose- and time-dependent reduction | tolerability in humans [2]: well-tolerated | all myeloid and lymphoid cell types measured, change from baseline [3]: statistically significant mean reductions | decline in mean serum eosinophils from baseline to week 12 (eosinophils [4]; 50 mg/day): 18.2% | mean eosinophils at week 16 recovered to % of baseline levels (eosinophils [4]; 150 mg/day group): 47 % of baseline levels | decline in mean serum eosinophils from baseline to week 12 (eosinophils [4]; 150 mg/day): 69.9% | mean eosinophils at week 16 recovered to % of baseline levels (eosinophils [4]; 300 mg/day group): 73 % of baseline levels | decline in mean serum eosinophils from baseline to week 12 (eosinophils [4]; 300 mg/day): 42.9% | decrease in eosinophil counts (eosinophils [4]; ALS subjects receiving dexpramipexole, Phase 2): dose- and time-dependent decrease | decline in eosinophils from week 16 to week 40 (eosinophils [4]; Part 2, 25 mg twice daily): 17.6% | decline in eosinophils from week 16 to week 40 (eosinophils [4]; Part 2, 150 mg twice daily): 78.9% | eosinophil counts in one subject with hypereosinophilia at Part 2 baseline (eosinophils [4]; one Phase 2 subject, persisted through month 12): decrease in eosinophil counts | subjects experiencing a 50% or greater decline in eosinophil count (eosinophils [5]; 300 mg daily, after 6 months of treatment): 77.5 % of subjects | peripheral blood eosinophil count (eosinophils [5]; 300 mg daily, after 8-12 weeks of treatment): profound decrease | mean eosinophil counts reduced from baseline (eosinophils [5]; 300 mg daily, month 6): 68.4% | decrease in eosinophil count in subjects with higher eosinophil counts (>0.25×10^9/L) (eosinophils [5]; 300 mg daily, n=42, after 6 months of treatment): 75% | time at which eosinophil-lowering effect reached plateau (eosinophils [5]; 300 mg daily, persisted through month 12): ~4 month | eosinophil counts in subject with highest baseline eosinophil count (eosinophils [5]; one Phase 3 subject, persisted through month 12): decrease in eosinophil counts | Siglec-F^lo IL5Rα^hi positive cells (developing B cells, basophils and other cell populations) in bone marrow (bone marrow cells): lowered | number of Scal^+ c-Kit^+ lineage negative cells (multipotent hematopoietic stem cells) in bone marrow (bone marrow cells): lowered | time at which basophil count decline reached plateau (basophils; remained reduced through month 12): ~4 month | mean basophil counts reduced from baseline (basophils; six month analysis): 45.5%

Source: patent US10456381B2, “Compositions and methods for treating plasma cell disorders and B-cell prolymphocytic disorders” (Knopp Biosciences LLC, priority 2013, dated 2019)
